In patent US10532977B2, “Small molecule inhibitors of protein tyrosine phosphatases and uses thereof” (Indiana University Research and Technology Corporation, priority 2015, dated 2020):
Entries after “also recorded” stand apart in the source; their conditions may differ.

Columns and labels:
SHP2 [1] = target: T1, SHP2 (Homo sapiens, UniProt Q06124); test: SHP2 inhibition, pNPP substrate; assay type: biochemical; settings: for mode of SHP2 inhibition: pNPP as substrate
T1 sequence (Q06124 224-528): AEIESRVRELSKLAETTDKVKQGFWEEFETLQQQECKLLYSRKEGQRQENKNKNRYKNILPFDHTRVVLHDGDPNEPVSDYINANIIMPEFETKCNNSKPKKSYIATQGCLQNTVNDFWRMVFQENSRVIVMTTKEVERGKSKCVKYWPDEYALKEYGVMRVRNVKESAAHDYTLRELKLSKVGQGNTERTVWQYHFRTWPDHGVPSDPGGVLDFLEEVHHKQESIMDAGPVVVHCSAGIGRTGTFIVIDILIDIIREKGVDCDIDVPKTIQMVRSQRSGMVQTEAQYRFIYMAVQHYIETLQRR

SHP2/R362A = SHP2/R362A (Homo sapiens, UniProt Q06124, R362A); test: SHP2/R362A mutant inhibition, pNPP substrate; assay type: biochemical; settings: vs wild-type SHP2
SHP2/R362A, sequence (Q06124 224-528 R362A): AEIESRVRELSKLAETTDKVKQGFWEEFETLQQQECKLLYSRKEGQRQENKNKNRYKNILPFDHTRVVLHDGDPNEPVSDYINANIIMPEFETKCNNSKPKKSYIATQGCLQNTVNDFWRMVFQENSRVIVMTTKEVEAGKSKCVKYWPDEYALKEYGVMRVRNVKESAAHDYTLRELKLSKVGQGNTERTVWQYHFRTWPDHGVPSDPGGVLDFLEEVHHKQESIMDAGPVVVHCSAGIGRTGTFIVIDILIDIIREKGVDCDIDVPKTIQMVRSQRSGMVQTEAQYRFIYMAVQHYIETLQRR
Experimental: Protein expression and purification. […] These proteins were expressed in E. coli BL21(DE3) and purified with Ni-NTA resin (Qiagen). The SHP2 catalytic domain (residues 262-528) used for crystallization was expressed in E. coli BL21(DE3) and purified by Ni-NTA agarose (Qiagen) followed by sequential chromatography of HiPrep 26 desalting column (GE Healthcare), and cation exchange column packed with SP sepharose (GE Healthcare). Protein purity was determined to be greater than 95% by SDS-PAGE and Coomassie blue staining.
Enzyme kinetics and inhibition studies. The SHP2 phosphatase activity was assayed in 96-well plates using pNPP as a substrate at 25° C. in 50 mM 3,3-dimethylglutarate (DMG) buffer (pH=7.0), containing 1 mM EDTA with an ionic strength of 0.15 M adjusted by NaCl. The FDA-approved drug collection or the SPAA based libraries were screened in a 96-well format at two different compound concentrations (10 and 20 μM for FDA drugs and 10 and 1 μM for the SPAA libraries). […] The amount of product, p-nitrophenol, was determined from the absorbance at 405 nm detected by a Spectra MAX340 microplate spectrophotometer (Molecular Devices) using a molar extinction coefficient of 18,000 M^−1 cm^−1. […] The Michaelis-Menten kinetic parameters kcat and Km were determined from a direct fit of the velocity versus substrate concentration data to Michaelis-Menten equation using SigmaPlot program.

[2] = Stability in buffer solutions by LC-MS; assay type: physicochemical
Experimental: (§1) Agilent Technologies 6130 quadrupole LC-MS instrument was used for the LC-MS studies. A C18 reserved phase column (phenomenex, 50×4.6 mm) was used as stationary phase, water and methanol (both containing 0.1% formic acid) were used as mobile phase (gradient: 0-100% methanol, flow 0 8 ml/min, run time 15 minutes), and UV absorbance at the fixed wavelength of 254 nm and positive and negative ESI-MS data were recorded. The sample was adjusted to have a concentration at 0.1 mg/mL, and the injection volume of each sample was 0.2 μL. The retention time and corresponding ESI-MS data were used as identity of molecules.

SHP2 [3] = target: SHP2 (Homo sapiens, UniProt Q06124); test: Covalent adduct formation with SHP2, QTOF ESI-MS / LC-MS; settings: pH 7, cefsulodin 3 hours, PVS 10 minutes
Experimental: Characterization of cefsulodin-mediated SHP2 inhibition by Q-TOF ESI-MS, LC-MS, and HPLC. Agilent 6520 Accurate-Mass was used for the Q-TOF ESI-MS studies. Water and acetonitrile (both containing 0.1% formic acid) were used as eluent (80% water, flow 50 μL/min, run time 5 minutes). ESI positive mode was used with mass range from 300 to 1700, the gas temperature was 325° C., and vaporizer temperature was: […] The sample was adjusted to have a concentration at 0.1 mg/mL, the injection volume of each sample was 1 μL. Mass hunter software was used for protein deconvolution data analysis to calculate the molecular weight of the protein.
as §1

[4] = system: EGF-mediated ERK1/2 phosphorylation; test: EGF-mediated ERK1/2 phosphorylation, immunoblot, H1975 cells; assay type: cell-based, human; settings: compound 7 at 40 μM
Experimental: (§2) Cell proliferation and immunoblot analysis. Human non-small cell lung carcinoma cell line H1975 was cultured at 37° C. and 5% CO2 in RPMI-1640 (Corning) supplemented with 10% fetal bovine serum (HyClone). Human breast cancer cell line MDA-MB-231 was cultured in DMEM supplemented with 10% fetal bovine serum. For cell proliferation assay, 2˜3×10^3 cells were seeded in each well of 96-well plates. After treating cells with compounds for 2 days, cells were incubated with 50 µg/ml MTT (3-(4,5-Dimethylthiazol-2-yl)-2,5-diphenyltetrazolium bromide) for ˜3-4 hours. Then, the culture medium was removed, DMSO was added to dissolve the formazan crystals. Wells containing only media were used for background correction. The optical density was measured spectrophotometrically at 540 nm. For signaling analysis, cells were serum-starved overnight followed by treatment with vehicle or compounds for 3 hours, and then either left un-stimulated or stimulated with 5 μg/ml EGF or 10 nM PMA (Sigma) for indicated time. Cells were lysed and the lysates were electrophoresed on a 10% polyacrylamide gel, and then transferred to a nitrocellulose membrane, and probed with anti-phospho-ERK1/2 and anti-ERK1/2 (Cell Signaling) antibodies followed by incubation with horseradish peroxidase-conjugated secondary antibodies. […]

[5] = system: PMA-induced ERK1/2 phosphorylation; test: PMA-induced ERK1/2 phosphorylation, immunoblot; assay type: cell-based, human
Experimental: as §2

SKBR3 cells = test: SKBR3 cell growth and ERK1/2 in Matrigel; assay type: cell-based, human; settings: 5 days
Experimental: SHP2 inhibitor 2 effects on cell growth in Matrigel. Approximately 300,000 SKBR3 cells were seeded into 150 µL of growth factor reduced Matrigel (BD) that was then covered with 2 mLs of media containing either 20 µL vehicle (DMSO) or the indicated concentrations of compound 2. Cells were then imaged at 24-hour intervals using a NIKON SMZ1500 stereomicroscope. After 5 days the cells were recovered from the Matrigel by the following method. Media was aspirated and cells were washed with 500 µL of cold PBS. 150 µL of RIPA lysis buffer supplemented with ProteCEASE-50. EDTA Free protease inhibitors (GBiosciences) was added to the Matrigel. Cells were scraped into a slurry and instantly frozen using dry ice for 5 minutes. After thawing tubes were spun down at 4° C. for 10 minutes at 14K rpm. Proteins were then resolved by SDS-PAGE and the relative levels of total and phospho-ERK1/2 were detected by immunoblot analysis.

PTP1B = PTP1B (Homo sapiens, UniProt P18031); test: PTP1B inhibition, pNPP substrate; assay type: biochemical; settings: pNPP at Km, pH 7.0, 25° C.
TcPTP = TcPTP (Homo sapiens, UniProt P17706); test: TcPTP inhibition, pNPP substrate; assay type: biochemical; settings: pH 7
LYP = LYP (Homo sapiens, UniProt Q9Y2R2); test: LYP inhibition, pNPP substrate; assay type: biochemical; settings: pNPP at Km, pH 7.0, 25° C.
SHP1 = SHP1 (Homo sapiens, UniProt P29350); test: SHP1 inhibition, pNPP substrate; assay type: biochemical; settings: pNPP at Km, pH 7.0, 25° C.
SHP1, sequence (P29350 whole entry): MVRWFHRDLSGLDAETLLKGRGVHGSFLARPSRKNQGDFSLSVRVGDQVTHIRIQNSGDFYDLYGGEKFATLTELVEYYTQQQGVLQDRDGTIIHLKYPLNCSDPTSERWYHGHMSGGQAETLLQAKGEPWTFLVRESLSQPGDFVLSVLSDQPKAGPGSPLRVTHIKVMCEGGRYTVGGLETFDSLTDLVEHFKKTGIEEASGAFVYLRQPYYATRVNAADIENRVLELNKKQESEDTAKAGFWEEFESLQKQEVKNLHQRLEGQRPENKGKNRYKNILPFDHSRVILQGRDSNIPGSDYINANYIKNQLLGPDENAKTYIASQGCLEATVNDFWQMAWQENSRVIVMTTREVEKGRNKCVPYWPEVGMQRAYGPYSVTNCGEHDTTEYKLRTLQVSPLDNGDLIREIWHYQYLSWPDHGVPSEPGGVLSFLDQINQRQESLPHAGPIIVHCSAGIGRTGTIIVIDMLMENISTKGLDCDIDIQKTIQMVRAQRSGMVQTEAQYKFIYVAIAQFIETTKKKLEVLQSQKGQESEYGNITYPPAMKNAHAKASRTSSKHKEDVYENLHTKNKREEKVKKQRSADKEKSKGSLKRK

HePTP = HePTP (Homo sapiens, UniProt P35236); test: HePTP inhibition, pNPP substrate; assay type: biochemical; settings: pNPP at Km, pH 7.0, 25° C.
HePTP, sequence (P35236 whole entry): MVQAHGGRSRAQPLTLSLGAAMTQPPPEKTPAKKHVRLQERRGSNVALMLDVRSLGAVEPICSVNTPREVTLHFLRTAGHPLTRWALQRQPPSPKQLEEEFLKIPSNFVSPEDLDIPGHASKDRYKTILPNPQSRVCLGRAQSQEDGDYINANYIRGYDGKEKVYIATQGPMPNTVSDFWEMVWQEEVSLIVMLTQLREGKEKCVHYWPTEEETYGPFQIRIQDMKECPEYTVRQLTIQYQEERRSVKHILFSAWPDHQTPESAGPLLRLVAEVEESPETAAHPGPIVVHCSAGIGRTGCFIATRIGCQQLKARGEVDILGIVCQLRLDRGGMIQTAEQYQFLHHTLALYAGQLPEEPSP

Meg2 = Meg2 (Homo sapiens, UniProt P43378); test: Meg2 inhibition, pNPP substrate; assay type: biochemical; settings: pNPP at Km, pH 7.0, 25° C.
FAP1 = FAP1 (Homo sapiens, UniProt Q12923); test: FAP1 inhibition, pNPP substrate; assay type: biochemical; settings: pH 7
CD45 = CD45 (Homo sapiens, UniProt P08575); test: CD45 inhibition, pNPP substrate; assay type: biochemical; settings: pNPP at Km, pH 7.0, 25° C.
LAR = LAR (Homo sapiens, UniProt P10586); test: LAR inhibition, pNPP substrate; assay type: biochemical; settings: pNPP at Km, pH 7.0, 25° C.
PTPα = PTPα (Homo sapiens, UniProt P18433); test: PTPα inhibition, pNPP substrate; assay type: biochemical; settings: pNPP at Km, pH 7.0, 25° C.
PTPα, sequence (P18433 20-802): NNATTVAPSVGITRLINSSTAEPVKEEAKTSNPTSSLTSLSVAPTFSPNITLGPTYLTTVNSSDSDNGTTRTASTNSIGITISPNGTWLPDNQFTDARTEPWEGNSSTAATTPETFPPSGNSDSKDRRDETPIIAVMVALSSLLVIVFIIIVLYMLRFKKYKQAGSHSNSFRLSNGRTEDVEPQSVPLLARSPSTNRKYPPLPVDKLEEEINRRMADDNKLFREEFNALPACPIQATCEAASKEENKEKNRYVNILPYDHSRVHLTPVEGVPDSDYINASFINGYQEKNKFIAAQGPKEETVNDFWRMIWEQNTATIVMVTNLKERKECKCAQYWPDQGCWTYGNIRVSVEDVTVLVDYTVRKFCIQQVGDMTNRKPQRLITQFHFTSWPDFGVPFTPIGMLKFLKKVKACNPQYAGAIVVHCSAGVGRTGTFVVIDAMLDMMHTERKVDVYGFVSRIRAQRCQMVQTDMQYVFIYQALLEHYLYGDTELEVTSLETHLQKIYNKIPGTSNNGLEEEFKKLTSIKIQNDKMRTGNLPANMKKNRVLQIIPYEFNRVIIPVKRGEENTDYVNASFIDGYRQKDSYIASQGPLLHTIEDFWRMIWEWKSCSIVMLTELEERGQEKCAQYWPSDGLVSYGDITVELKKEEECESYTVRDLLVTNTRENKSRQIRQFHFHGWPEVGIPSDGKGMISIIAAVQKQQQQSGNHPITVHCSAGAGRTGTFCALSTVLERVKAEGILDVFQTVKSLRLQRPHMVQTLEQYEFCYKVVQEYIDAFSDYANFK

PTPβ = PTPβ (Homo sapiens, UniProt P23467); test: PTPβ inhibition, pNPP substrate; assay type: biochemical, mammalian; settings: pNPP at Km, pH 7.0, 25° C.
PTPγ = PTPγ (Homo sapiens, UniProt P23470); test: PTPγ inhibition, pNPP substrate; assay type: biochemical; settings: pNPP at Km, pH 7.0, 25° C.
PTPσ = PTPσ (Homo sapiens, UniProt Q13332); test: PTPσ inhibition, pNPP substrate; assay type: biochemical; settings: pH 7
PTPσ, sequence (Q13332 30-1948): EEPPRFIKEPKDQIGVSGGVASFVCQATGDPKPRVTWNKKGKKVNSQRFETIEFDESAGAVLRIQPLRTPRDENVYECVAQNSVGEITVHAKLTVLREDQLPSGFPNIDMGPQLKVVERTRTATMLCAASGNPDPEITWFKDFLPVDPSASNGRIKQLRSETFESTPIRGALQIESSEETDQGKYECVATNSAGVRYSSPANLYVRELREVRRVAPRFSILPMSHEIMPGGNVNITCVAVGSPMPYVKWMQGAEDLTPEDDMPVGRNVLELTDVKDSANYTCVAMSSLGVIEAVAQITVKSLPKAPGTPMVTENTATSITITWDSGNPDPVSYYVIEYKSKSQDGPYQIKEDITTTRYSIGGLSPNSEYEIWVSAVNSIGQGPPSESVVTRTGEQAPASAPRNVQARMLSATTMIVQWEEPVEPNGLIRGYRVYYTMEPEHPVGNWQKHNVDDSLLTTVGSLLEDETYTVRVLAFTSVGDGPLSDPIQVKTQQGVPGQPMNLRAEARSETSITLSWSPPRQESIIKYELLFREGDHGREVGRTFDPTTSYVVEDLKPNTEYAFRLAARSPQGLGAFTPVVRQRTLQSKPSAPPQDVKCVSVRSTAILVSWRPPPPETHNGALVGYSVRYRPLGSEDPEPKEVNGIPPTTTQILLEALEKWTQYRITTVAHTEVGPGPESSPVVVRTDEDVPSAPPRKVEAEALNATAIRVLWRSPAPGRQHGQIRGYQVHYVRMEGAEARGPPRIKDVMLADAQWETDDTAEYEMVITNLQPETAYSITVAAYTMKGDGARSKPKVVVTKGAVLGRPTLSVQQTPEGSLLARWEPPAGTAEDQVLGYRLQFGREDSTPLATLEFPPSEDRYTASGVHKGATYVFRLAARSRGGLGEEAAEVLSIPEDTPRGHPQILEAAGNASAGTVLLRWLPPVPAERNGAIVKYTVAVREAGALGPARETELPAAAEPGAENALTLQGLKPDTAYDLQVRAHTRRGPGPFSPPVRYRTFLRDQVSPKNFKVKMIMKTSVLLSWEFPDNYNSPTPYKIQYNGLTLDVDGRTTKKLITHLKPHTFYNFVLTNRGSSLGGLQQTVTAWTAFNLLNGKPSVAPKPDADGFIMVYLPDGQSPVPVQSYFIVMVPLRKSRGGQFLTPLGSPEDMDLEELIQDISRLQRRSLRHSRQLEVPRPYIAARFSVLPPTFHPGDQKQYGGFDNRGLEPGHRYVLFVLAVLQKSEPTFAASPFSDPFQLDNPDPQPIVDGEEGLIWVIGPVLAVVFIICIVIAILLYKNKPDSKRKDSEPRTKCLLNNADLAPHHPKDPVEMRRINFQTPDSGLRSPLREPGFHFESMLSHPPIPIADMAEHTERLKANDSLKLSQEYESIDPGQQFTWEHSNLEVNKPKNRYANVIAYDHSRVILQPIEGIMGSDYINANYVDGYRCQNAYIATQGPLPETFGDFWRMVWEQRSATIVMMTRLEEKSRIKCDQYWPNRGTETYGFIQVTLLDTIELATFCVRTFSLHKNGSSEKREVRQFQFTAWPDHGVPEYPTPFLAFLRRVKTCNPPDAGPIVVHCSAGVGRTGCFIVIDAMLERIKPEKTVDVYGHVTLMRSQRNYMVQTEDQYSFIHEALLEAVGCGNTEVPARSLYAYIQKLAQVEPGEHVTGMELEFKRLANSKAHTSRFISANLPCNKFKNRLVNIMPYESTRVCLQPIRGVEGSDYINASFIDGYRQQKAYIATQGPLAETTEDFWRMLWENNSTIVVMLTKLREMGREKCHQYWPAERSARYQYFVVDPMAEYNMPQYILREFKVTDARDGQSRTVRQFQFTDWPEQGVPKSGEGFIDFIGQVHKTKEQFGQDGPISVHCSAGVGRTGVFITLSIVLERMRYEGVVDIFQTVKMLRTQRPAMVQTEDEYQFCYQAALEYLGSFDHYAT

PTPε = PTPε (Homo sapiens, UniProt P23469); test: PTPε inhibition, pNPP substrate; assay type: biochemical, mammalian; settings: pNPP at Km, pH 7.0, 25° C.
PTPμ = PTPμ (Homo sapiens, UniProt P28827); test: PTPμ inhibition, pNPP substrate; assay type: biochemical, mammalian; settings: pNPP at Km, pH 7.0, 25° C.
MKP3 = MKP3 (Homo sapiens, UniProt Q16828); test: MKP3 inhibition, pNPP substrate; assay type: biochemical; settings: pH 7
MKP3, sequence (Q16828 whole entry): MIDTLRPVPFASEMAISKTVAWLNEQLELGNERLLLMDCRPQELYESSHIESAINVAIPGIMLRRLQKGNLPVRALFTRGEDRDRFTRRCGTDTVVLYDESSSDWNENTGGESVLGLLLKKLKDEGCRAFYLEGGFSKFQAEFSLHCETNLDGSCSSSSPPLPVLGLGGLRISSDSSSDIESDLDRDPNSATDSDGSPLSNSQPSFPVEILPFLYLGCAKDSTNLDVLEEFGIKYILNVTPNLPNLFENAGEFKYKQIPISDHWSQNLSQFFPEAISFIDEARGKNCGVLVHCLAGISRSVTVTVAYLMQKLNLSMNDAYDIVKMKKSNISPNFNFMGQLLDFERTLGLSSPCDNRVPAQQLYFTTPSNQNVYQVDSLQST

VHR = VHR (Homo sapiens, UniProt P51452); test: VHR inhibition, pNPP substrate; assay type: biochemical; settings: pNPP at Km, pH 7.0, 25° C.
VHR, sequence (P51452 whole entry): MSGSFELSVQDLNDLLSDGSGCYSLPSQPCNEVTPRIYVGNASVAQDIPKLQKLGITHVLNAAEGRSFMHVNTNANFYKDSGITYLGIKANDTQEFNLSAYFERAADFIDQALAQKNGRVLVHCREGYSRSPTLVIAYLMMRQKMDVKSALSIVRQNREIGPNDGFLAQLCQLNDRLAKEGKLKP

VHZ = target: T2, VHZ (Homo sapiens, UniProt Q9BVJ7); test: VHZ inhibition, pNPP substrate; assay type: biochemical; settings: pNPP at Km, pH 7.0, 25° C.
T2 construct: made in house

CDC14A = CDC14A (Homo sapiens, UniProt Q9UNH5); test: CDC14A inhibition, pNPP substrate; assay type: biochemical; settings: pNPP at Km, pH 7.0, 25° C.
PP5 = PP5 (Homo sapiens, UniProt P53041); test: PP5 inhibition, pNPP substrate; assay type: biochemical, mammalian; settings: pNPP at Km, pH 7.0, 25° C.
Ssu72 = target: T3, Ssu72 (Homo sapiens, UniProt Q9NP77); test: Ssu72 inhibition, pNPP substrate; assay type: biochemical; settings: pH 7
T3 construct: made in house
T3 sequence (Q9NP77 whole entry): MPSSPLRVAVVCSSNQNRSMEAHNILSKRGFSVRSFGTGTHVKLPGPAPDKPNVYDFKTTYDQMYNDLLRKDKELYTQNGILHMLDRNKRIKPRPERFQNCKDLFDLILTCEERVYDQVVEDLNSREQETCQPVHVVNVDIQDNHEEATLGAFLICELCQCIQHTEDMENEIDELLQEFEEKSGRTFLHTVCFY

Laforin = target: T4, Laforin (Homo sapiens, UniProt O95278); test: Laforin inhibition, pNPP substrate; assay type: biochemical
T4 sequence (O95278 1-331): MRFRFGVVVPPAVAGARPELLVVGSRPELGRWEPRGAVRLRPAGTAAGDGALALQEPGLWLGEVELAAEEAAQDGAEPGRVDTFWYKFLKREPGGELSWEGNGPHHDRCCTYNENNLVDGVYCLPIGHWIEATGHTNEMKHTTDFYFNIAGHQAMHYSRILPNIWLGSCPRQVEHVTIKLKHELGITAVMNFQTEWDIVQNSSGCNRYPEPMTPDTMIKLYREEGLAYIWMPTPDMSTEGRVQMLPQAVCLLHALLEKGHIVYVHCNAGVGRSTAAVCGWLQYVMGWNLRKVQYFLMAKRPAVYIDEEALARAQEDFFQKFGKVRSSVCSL

PEST = PEST (Homo sapiens, UniProt Q05209); test: PEST inhibition, pNPP substrate; assay type: biochemical
LMWPTP = LMWPTP (Homo sapiens, UniProt P24666); test: biochemical
LMWPTP, sequence (P24666 whole entry): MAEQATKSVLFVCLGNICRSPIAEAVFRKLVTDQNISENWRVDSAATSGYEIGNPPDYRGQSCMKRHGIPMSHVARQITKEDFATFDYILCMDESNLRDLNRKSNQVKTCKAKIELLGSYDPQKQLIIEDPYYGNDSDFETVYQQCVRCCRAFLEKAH

NC(=O)c1cc[n+](CC2=C(C(=O)O)N3C(=O)[C@@H](NC(=O)[C@@H](c4ccccc4)S(=O)(=O)[O-])[C@H]3SC2)cc1 [Cefsulodin]
mode of SHP2 inhibition (SHP2 [1]): competitive inhibitor
mode of SHP2 inhibition (SHP2 [1]; listed as cefsulodin): competitive and reversible
increase of IC50 by replacement of R362 with alanine (SHP2/R362A): 3 fold
stability in crystallization solution (final pH=7.1) ([2]; 20° C., with SHP2 and DTT): completely degraded within 2 days; also recorded: the majority of cefsulodin was gone after 2 d
stability in CBTP buffer at pH 9.1 ([2]; 3 h, 6 h, 12 h): degradation was further accelerated; also recorded: cefsulodin was gone after 12 h
stability in pH 5.8 MES buffer ([2]; 12 h, 1 d, 2 d): degradation of cefsulodin was negligible; also recorded: stable for at least 2 days
stability in pH 7.4 CBTP buffer ([2]; 12 h, 1 d, 2 d): degradation was obvious; also recorded: cefsulodin concentrations decreased progressively
stability under inhibition assay conditions ([2]; pH 7 and 25° C., 0 h, 3 h, 24 h and 48 h): no change in cefsulodin
covalent adduct formation with SHP2 (SHP2 [3]): no covalent adduct formation; also recorded: not inhibiting SHP2 by covalent modification

O=C(Nc1ccc(I)cc1)C(=O)Nc1ccc(NC(=O)C(c2ccccc2)S(=O)(=O)O)cc1 (stereo not shown) [Compound 2, 2-((4-(2-((4-iodophenyl)amino)-2-oxoacetamido)phenyl)amino)-2-oxo-1-phenylethanesulfonic acid]
EGF-mediated ERK1/2 phosphorylation in H1975 cells [4]: reduced EGF-mediated ERK1/2 phosphorylation in a dose-dependent manner; also recorded: decrease the EGF-mediated ERK1/2 phosphorylation in a dose dependent manner
PMA-induced ERK1/2 phosphorylation [5]: no effect
ERK1/2 activity in SKBR3 cells in Matrigel at 20 μM (SKBR3 cells; 20 μM): partial inhibition
SKBR3 cell growth in Matrigel at 20 μM (SKBR3 cells; 20 μM): partial inhibition
ERK1/2 activity in SKBR3 cells in Matrigel at 40 μM (SKBR3 cells; 40 μM): barely detectable
SKBR3 cell growth in Matrigel at 40 μM (SKBR3 cells; 40 μM): almost completely absent

Cc1c(Br)cc(NC(=O)C(c2ccccc2)S(=O)(=O)O)cc1Br (stereo not shown) [Compound L319M34]
IC50 (PTP1B): > 200 µM
IC50 (TcPTP): > 200 µM
IC50 (LYP): > 200 µM
IC50 (SHP1): > 200 µM
IC50 (SHP2 [1]; pNPP at Km, pH 7.0, 25° C.): > 200 µM
IC50 (HePTP): > 200 µM
IC50 (Meg2): > 200 µM
IC50 (FAP1): > 200 µM
IC50 (CD45): > 200 µM
IC50 (LAR): > 200 µM
IC50 (PTPα): > 200 µM
IC50 (PTPβ): > 200 µM
IC50 (PTPγ): > 200 µM
IC50 (PTPσ): > 200 µM
IC50 (PTPε): > 200 µM
IC50 (PTPμ): > 200 µM
IC50 (MKP3): > 200 µM
IC50 (VHR): > 200 µM
IC50 (VHZ): > 200 µM
IC50 (CDC14A): > 200 µM
IC50 (PP5): > 200 µM
IC50 (Ssu72): > 200 µM

O=C(Nc1nnc(-c2ccc(Br)cc2)s1)C(c1ccccc1)S(=O)(=O)O (stereo not shown) [Compound L319M79]
IC50 (Laforin): 2.2 µM
IC50 (PEST): 26.5 µM
IC50 (LMWPTP): 23.6 µM
